The compounds below were run against GTP-binding protein Di-Ras1 (Homo sapiens) (UniProt O95057) (assay: ligand-induced DIRAS1 melting temperature shift – biophysical, recombinant human GTPase, DSF (AID 386)). Settings: recombinant DIRAS1, DSF thermal shift, SYPRO orange; at 10 µM; protein 2 µM; buffer 10 mM HEPES; pH 7.5; NaCl 150 mM; stronger effect = higher value.
Chain of GTP-binding protein Di-Ras1 (Homo sapiens) (O95057 whole entry, looked up): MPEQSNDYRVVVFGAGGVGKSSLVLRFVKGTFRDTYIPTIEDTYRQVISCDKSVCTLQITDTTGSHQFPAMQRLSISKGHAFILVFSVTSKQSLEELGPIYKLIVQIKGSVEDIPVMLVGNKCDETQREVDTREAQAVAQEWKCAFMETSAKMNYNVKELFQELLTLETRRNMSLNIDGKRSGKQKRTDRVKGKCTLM

Structure (SMILES) | Tm shift [Celsius]
O=c1c(O)c(-c2ccc(O)c(O)c2)oc2cc(O)cc(O)c12 | 3.3
NS(=O)(=O)c1ccc(Nc2nc(OCC3CCCCC3)c3[nH]cnc3n2)cc1 | 2.1
COc1ccc(S(O)(O)N(CCO)c2ccccc2CN(C)C/C=C/c2ccc(Cl)cc2)cc1 | 4.4
CN[C@@H]1C[C@H]2OC(C)([C@@H]1OC)n1c3ccccc3c3c4c(c5c6ccccc6n2c5c31)C(=O)NC4 | 2.6

From PubChem BioAssay AID386
